Molecules are shown by their SMILES. Where two headings read alike, the source gives them in different places.

Results on 3 molecules are retold here after patent publication US5010058A, “3,5,6-substituted derivatives of 1,2-O-isopropylidene-α,D-glucofuranose and intermediates for preparing these derivatives” (501 Greenwich Pharmaceuticals Incorporated, priority 1989, dated 1991).

The assay relates to normal spleen cells / splenic T-lymphocytes (Con-A stimulated). In words: Con-A blastogenic response of normal spleen cells (3H-thymidine incorporation). The class given is cell-based, mouse (C57Bl/6). The note with it: for Blastogenic response of normal spleen cells to Con-A; % effect / inhibition at 1 µg/mL / inhibition at 10 µg/mL / inhibition at 25 µg/mL / inhibition at 100 µg/mL / inhibition at 300 µg/mL / inhibition at 750 µg/mL: percent change from no compound; for Blastogenic response of normal spleen cells to Con-A; % effect: 4320 min; for Blastogenic response of normal spleen cells to Con-A: triplicates ± SD; for inhibition at 1 µg/mL / inhibition at 10 µg/mL / inhibition at 25 µg/mL / inhibition at 100 µg/mL / inhibition at 300 µg/mL / inhibition at 750 µg/mL: Mus musculus, T-lymphocyte, 72 h, read-out: Blastogenic response of normal spleen cells to Con-A, % effect. From the text:
A simple method is used to screen compounds for their ability to modulate T-lymphocyte activity which comprises assessing the capacity of the compounds to alter the activation of murine spleen cells in response to T-lymphocyte mitogen activators, such as concanavalin-A (Con-A). The method used to measure the effects of the compounds of the present invention on the blastogenic response of spleen cells to the T-lymphocyte mitogen, (i.e., Con-A), is as follows.
Spleen cells were removed from normal C57Bl/6 mice and homogenized to obtain a single cell suspension. Erythrocytes were lysed by hypotonic shock. Upon determination of the viability and concentration of the remaining lymphoid cells, they were adjusted to a concentration of 4×10^6 /ml. These spleen cells (2×10^5 cells per […]) were seeded into wells of microtiter plates with the compounds of the present invention having the following dose concentrations:
Con-A was also added to these cultures at a final concentration of […]. These cells were cultured for 3 days at 37° C. in a humidified atmosphere of 5% CO2 in air. For the last 18 hours of culture, […] H-thymidine was added to each well. The cells were then precipitated by a multichannel harvester. The amount of ^3 H-thymidine incorporated by the cultured cells were measured in a liquid scintillation counter (Disintegrations per min., DPM). All assays were conducted in triplicate.
The incubation medium used for the blastogenesis assays was RPMI-1640 medium containing 10% fetal bovine serum, […] streptomycin, 100 U/ml penicillin, […] Hepes buffer solution, 5×10^-5 M 2-mercaptoethanol and 2 mM glutamine.
^a Experimental compounds were first suspended in DMSO or ethanol,
^b The effect of experimental compounds on the blastogenic response o

The mark [1] stands for this setting: Con-A 1 ug/ml, compound 1 ug/ml.
Where [2] appears, read: Con-A 1 ug/ml, compound 10 ug/ml.
Setting [3] is: Con-A 1 ug/ml, compound 25 ug/ml.
Where [4] appears, read: Con-A 1 ug/ml, compound 100 ug/ml.
[5] abbreviates: Con-A 1 ug/ml, compound 300 ug/ml.
[6] abbreviates: Con-A 1 ug/ml, compound 750 ug/ml.
The mark [7] stands for this setting: Con-A 4 ug/ml, compound 1 ug/ml.
Setting [8] is: Con-A 4 ug/ml, compound 10 ug/ml.
Where [9] appears, read: Con-A 4 ug/ml, compound 25 ug/ml.
Setting [10] is: Con-A 4 ug/ml, compound 100 ug/ml.
Where [11] appears, read: Con-A 4 ug/ml, compound 300 ug/ml.
The mark [12] stands for this setting: Con-A 4 ug/ml, compound 750 ug/ml.

Consider `CCCCCCCNC[C@H]1OC(C)(C)O[C@@H]2[C@H]3OC(C)(C)O[C@H]3O[C@@H]21` [Ex. 1, 1,2:3,5-Di-O-isopropylidene-6-deoxy-6-aminoheptyl-α, D-glucofuranose], for which the “Blastogenic response of normal spleen cells to Con-A; % effect” value is recorded as “+29%” under setting [1]; -26% under setting [2]; -63% under setting [3]; -85% under setting [4]; -93% under setting [5]; -87% under setting [6]. For the same molecule, the “Blastogenic response of normal spleen cells to Con-A; % effect” value runs as follows: under setting [7], “+20%”; under setting [8], -67%; under setting [9], -94%; under setting [10], -95%; under setting [11], -97%; under setting [12], -98%. Further, the “Blastogenic response of normal spleen cells to Con-A” value by setting is: under setting [1], 93,328 ± 15,583 cpm; under setting [2], 53,439 ± 9,464 cpm; under setting [3], 26,920 ± 10,528 cpm; under setting [4], 10,705 ± 9,501 cpm; under setting [5], 5,398 ± 4,008 cpm; under setting [6], 19,688 ± 7,148 cpm. Moreover, the “Blastogenic response of normal spleen cells to Con-A” value is on record as 116,263 ± 2,521 cpm under setting [7]; 32,032 ± 1,999 cpm under setting [8]; 6,201 ± 1,410 cpm under setting [9]; 4,880 ± 3,619 cpm under setting [10]; 3,097 ± 573 cpm under setting [11]; 2,089 ± 35 cpm under setting [12].

In the case of `CCCCCCCOC(C)C1OC2OC(C)(C)OC2C1O` [Ex. 5, 1,2-O-Isopropylidene-5-O-n-heptyl-6-deoxy α, D-glucofuranose], the “Blastogenic response of normal spleen cells to Con-A” value by setting is: under setting [1], 91,612 ± 15,530 cpm; under setting [2], 79,822 ± 15,967 cpm; under setting [3], 63,177 ± 13,102 cpm; under setting [4], 8,553 ± 9,274 cpm; under setting [5], 8,698 ± 786 cpm; under setting [6], 9,487 ± 7,951 cpm. Further, the “Blastogenic response of normal spleen cells to Con-A” value by setting is: under setting [7], 116,377 ± 12,433 cpm; under setting [8], 92,190 ± 13,256 cpm; under setting [9], 62,068 ± 3,736 cpm; under setting [10], 2,299 ± 490 cpm; under setting [11], 5,932 ± 2,770 cpm; under setting [12], 4,494 ± 2,952 cpm. The inhibition at 1 µg/mL runs as follows: under setting [1], -27%; under setting [7], -20%. Further, the inhibition at 10 µg/mL under setting [2] is -11% and the inhibition at 10 µg/mL under setting [8] came to 5%. Also, the inhibition at 25 µg/mL under setting [3] was 13% and the inhibition at 25 µg/mL under setting [9] is 36%. The inhibition at 100 µg/mL reads like this: under setting [4], 88%; under setting [10], 98%. Further, the inhibition at 300 µg/mL is 88% under setting [5] and 94% under setting [11]. The inhibition at 750 µg/mL is 87% under setting [6] and 95% under setting [12].

In the case of `CCCCCCCNCC(O)C1OC2OC(C)(C)OC2C1OCCCCCCC` [Ex. 4, 1,2-O-Isopropylidene-3-O-(n-heptyl)-6-deoxy-6-aminoheptyl-α, D-glucofuranose], the “Blastogenic response of normal spleen cells to Con-A” value is, setting by setting: under setting [1], 22,026 ± 9,838 cpm; under setting [2], 3,406 ± 422 cpm; under setting [3], 3,575 ± 827 cpm; under setting [4], 5,241 ± 2,071 cpm; under setting [5], 9,102 ± 6,857 cpm; under setting [6], 3,762 ± 1,201 cpm. For the same molecule, the “Blastogenic response of normal spleen cells to Con-A” value is, setting by setting: under setting [7], 41,151 ± 9,885 cpm; under setting [8], 7,789 ± 7,636 cpm; under setting [9], 13,114 ± 8,696 cpm; under setting [10], 7,102 ± 6,851 cpm; under setting [11], 4,919 ± 645 cpm; under setting [12], 3,128 ± 99 cpm. Moreover, the inhibition at 1 µg/mL came out at 70% under setting [1] and 58% under setting [7]. Also, the inhibition at 10 µg/mL under setting [2] was 95% and the inhibition at 10 µg/mL under setting [8] stood at 92%. For the same molecule, the inhibition at 25 µg/mL stood at 95% under setting [3] and 86% under setting [9]. The inhibition at 100 µg/mL turned out to be 93% under setting [4] and 93% under setting [10]. For the same molecule, the inhibition at 300 µg/mL under setting [5] was 87% and the inhibition at 300 µg/mL under setting [11] is 95%. Further, the inhibition at 750 µg/mL runs as follows: under setting [6], 95%; under setting [12], 97%.
